Data published in the kinase profiling compilation of Christmann-Franck et al. (2016).

Tests used:
Assay in all cases: KINOMEscan competition binding
Settings in all cases: compound 0.5 µM
[1] = test system: PIK3CA (human), P42336 [C420R]
EPHB1 (human) = EPHB1 (human) (UniProt P54762)
STK24 (human) = STK24 (human) (UniProt Q9Y6E0)
PAK1 (human) = PAK1 (human) (UniProt Q13153)
SIK1 (human) = SIK1 (human) (UniProt P57059)
LIMK2 (human) = LIMK2 (human) (UniProt P53671)
PAK3 (human) = PAK3 (human) (UniProt O75914)
MAP3K6 (human) = MAP3K6 (human) (UniProt O95382)
CSF1R (human) = CSF1R (human) (UniProt P07333)
Chain of CSF1R (human) (P07333 whole entry, looked up): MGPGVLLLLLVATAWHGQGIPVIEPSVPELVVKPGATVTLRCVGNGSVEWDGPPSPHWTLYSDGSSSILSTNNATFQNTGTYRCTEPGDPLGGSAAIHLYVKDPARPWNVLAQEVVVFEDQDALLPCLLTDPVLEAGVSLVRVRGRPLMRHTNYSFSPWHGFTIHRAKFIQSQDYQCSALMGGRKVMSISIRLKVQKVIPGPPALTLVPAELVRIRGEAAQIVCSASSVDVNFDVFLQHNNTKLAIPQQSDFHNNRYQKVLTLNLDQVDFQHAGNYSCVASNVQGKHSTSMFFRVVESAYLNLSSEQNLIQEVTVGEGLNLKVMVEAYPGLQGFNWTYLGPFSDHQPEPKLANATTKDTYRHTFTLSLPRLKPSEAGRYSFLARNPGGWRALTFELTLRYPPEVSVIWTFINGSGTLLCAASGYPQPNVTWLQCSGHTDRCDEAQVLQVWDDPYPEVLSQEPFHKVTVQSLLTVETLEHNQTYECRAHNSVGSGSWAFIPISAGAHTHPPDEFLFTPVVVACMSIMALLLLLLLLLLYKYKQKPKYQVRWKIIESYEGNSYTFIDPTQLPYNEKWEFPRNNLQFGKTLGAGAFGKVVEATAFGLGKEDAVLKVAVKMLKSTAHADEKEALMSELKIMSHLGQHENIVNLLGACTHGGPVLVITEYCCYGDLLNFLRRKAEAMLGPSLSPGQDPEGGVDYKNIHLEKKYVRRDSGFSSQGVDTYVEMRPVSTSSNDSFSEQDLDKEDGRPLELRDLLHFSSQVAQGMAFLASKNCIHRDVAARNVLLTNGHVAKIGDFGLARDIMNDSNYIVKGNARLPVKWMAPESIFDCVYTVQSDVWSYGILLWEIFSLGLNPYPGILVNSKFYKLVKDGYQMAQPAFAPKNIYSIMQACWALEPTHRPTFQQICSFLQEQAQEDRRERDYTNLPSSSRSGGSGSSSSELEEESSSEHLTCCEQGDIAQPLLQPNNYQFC

CAMK4 (human) = CAMK4 (human) (UniProt Q16566)
Chain of CAMK4 (human) (Q16566 whole entry, looked up): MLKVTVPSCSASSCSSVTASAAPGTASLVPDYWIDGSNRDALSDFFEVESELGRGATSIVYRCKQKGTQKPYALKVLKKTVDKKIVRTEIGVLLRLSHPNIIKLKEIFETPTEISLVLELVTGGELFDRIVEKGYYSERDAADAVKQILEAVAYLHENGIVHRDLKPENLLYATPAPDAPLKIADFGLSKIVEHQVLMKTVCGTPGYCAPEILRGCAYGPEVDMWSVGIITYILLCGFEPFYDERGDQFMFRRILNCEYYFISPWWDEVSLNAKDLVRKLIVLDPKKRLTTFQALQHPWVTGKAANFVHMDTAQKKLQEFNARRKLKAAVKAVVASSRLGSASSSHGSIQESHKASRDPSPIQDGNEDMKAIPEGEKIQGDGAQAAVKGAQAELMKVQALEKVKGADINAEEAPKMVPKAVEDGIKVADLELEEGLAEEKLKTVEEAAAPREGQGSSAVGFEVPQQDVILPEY

ACVR1B (human) = ACVR1B (human) (UniProt P36896)
Chain of ACVR1B (human) (P36896 whole entry, looked up): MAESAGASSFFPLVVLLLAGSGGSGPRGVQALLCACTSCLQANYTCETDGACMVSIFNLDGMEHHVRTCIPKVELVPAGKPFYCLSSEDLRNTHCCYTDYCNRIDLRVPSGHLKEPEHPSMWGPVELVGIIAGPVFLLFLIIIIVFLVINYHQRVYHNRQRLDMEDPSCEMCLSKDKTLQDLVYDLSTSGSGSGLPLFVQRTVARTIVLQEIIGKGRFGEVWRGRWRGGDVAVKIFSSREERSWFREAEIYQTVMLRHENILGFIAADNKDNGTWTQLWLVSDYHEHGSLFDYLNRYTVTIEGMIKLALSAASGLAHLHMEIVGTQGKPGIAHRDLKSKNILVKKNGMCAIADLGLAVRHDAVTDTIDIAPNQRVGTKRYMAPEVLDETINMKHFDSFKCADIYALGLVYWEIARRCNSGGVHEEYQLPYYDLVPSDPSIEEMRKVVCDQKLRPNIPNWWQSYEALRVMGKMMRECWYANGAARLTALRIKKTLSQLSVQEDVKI

MAPKAPK2 (human) = MAPKAPK2 (human) (UniProt P49137)
YES1 (human) = YES1 (human) (UniProt P07947)
[2] = test system: PIK3CA (human), P42336 [E545A]
PDGFRB (human) = PDGFRB (human) (UniProt P09619)
[3] = test system: KIT (human), P10721 [L576P]
Chain of KIT (human), P10721 [L576P] (P10721 whole entry L576P, looked up): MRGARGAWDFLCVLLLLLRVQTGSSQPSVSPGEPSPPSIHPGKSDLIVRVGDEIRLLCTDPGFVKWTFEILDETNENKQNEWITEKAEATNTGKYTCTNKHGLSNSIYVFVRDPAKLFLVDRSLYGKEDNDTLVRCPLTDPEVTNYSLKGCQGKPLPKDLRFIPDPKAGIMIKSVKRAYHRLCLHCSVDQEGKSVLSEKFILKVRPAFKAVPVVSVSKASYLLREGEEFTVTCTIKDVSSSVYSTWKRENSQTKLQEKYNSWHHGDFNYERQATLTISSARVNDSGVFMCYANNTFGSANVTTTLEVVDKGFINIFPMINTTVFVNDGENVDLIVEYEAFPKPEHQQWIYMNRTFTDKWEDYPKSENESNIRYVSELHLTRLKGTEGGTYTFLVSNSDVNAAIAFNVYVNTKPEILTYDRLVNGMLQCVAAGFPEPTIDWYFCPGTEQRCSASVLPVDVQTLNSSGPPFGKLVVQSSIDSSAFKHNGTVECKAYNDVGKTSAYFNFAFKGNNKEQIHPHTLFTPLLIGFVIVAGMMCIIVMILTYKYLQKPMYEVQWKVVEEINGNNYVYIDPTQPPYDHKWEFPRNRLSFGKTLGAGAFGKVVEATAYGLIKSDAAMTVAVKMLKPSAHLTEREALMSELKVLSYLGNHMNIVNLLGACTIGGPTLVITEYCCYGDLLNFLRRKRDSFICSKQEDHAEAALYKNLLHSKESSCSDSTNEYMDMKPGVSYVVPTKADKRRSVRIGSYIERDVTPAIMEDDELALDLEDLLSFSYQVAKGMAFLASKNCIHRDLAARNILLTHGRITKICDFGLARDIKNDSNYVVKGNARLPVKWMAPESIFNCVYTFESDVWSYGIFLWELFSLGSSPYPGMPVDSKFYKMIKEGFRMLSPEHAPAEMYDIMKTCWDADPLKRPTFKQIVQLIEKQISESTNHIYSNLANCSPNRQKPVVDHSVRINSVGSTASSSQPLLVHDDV

MAP3K1 (human) = MAP3K1 (human) (UniProt Q13233)
[4] = test system: BRAF (human), P15056 [V600E]
[5] = test system: RET (human), P07949 [M918T]
MAP4K4 (human) = MAP4K4 (human) (UniProt O95819)
FLT4 (human) = FLT4 (human) (UniProt P35916)
MKNK2 (human) = MKNK2 (human) (UniProt Q9HBH9)
SYK (human) = SYK (human) (UniProt P43405)
MAPK15 (human) = MAPK15 (human) (UniProt Q8TD08)
EIF2AK2 (human) = EIF2AK2 (human) (UniProt P19525)
DMPK (human) = DMPK (human) (UniProt Q09013)
RIPK2 (human) = RIPK2 (human) (UniProt O43353)
NTRK2 (human) = NTRK2 (human) (UniProt Q16620)
MAPK11 (human) = MAPK11 (human) (UniProt Q15759)
TYRO3 (human) = TYRO3 (human) (UniProt Q06418)
[6] = test system: KIT (human), P10721 [D816V]
Chain of KIT (human), P10721 [D816V] (P10721 whole entry D816V, looked up): as the sequence (P10721 whole entry L576P, looked up) above, with P576L, D816V counted along it

TGFBR1 (human) = TGFBR1 (human) (UniProt P36897)
Chain of TGFBR1 (human) (P36897 whole entry, looked up): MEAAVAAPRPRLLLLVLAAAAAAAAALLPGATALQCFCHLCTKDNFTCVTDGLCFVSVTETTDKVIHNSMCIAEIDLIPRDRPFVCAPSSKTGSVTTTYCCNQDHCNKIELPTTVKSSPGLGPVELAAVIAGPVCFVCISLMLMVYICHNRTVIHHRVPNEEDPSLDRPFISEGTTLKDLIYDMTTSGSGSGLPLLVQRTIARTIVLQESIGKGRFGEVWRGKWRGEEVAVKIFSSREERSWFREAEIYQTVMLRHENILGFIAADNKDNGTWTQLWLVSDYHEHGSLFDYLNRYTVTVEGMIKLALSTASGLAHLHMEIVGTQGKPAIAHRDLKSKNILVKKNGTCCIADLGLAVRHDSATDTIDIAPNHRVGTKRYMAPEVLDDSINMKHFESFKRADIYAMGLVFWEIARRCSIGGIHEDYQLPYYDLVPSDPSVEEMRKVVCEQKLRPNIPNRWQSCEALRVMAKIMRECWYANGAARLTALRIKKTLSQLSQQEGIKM

MARK2 (human) = MARK2 (human) (UniProt Q7KZI7)
DCLK2 (human) = DCLK2 (human) (UniProt Q8N568)
[7] = test system: FGFR3 (human), P22607 [G697C]
BRAF (human) = BRAF (human) (UniProt P15056)
ROS1 (human) = ROS1 (human) (UniProt P08922)
RIPK4 (human) = RIPK4 (human) (UniProt P57078)
CSNK2A1 (human) = CSNK2A1 (human) (UniProt P68400)
KDR (human) = KDR (human) (UniProt P35968)
GRK7 (human) = GRK7 (human) (UniProt Q8WTQ7)
CAMK2B (human) = CAMK2B (human) (UniProt Q13554)

Chain of EPHB1 (human) (P54762 whole entry, looked up): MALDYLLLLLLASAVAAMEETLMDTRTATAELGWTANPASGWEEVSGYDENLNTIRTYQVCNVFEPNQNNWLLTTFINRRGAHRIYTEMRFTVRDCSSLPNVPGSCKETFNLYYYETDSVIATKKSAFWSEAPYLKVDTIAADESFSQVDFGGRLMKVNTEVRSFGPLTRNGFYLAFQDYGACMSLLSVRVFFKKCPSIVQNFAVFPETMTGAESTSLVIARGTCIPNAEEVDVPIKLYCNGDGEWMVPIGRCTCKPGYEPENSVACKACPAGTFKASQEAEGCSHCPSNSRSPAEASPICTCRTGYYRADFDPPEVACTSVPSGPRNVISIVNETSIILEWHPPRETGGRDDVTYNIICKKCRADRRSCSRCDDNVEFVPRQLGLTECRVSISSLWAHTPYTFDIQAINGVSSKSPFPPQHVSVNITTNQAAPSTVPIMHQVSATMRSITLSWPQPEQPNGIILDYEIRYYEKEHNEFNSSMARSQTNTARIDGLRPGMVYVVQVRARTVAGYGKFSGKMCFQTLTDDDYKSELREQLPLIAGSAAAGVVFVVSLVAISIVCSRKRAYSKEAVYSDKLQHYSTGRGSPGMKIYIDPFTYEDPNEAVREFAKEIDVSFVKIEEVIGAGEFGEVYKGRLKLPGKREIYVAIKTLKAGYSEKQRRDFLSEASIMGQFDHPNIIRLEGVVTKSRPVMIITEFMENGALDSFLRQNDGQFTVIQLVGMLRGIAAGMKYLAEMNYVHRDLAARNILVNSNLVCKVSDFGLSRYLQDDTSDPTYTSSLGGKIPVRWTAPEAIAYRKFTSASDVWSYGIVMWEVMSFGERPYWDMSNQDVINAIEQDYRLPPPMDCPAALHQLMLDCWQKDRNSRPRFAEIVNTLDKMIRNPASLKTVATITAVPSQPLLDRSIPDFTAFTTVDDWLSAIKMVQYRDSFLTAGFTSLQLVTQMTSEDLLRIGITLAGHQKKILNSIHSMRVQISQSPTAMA
Chain of STK24 (human) (Q9Y6E0 whole entry, looked up): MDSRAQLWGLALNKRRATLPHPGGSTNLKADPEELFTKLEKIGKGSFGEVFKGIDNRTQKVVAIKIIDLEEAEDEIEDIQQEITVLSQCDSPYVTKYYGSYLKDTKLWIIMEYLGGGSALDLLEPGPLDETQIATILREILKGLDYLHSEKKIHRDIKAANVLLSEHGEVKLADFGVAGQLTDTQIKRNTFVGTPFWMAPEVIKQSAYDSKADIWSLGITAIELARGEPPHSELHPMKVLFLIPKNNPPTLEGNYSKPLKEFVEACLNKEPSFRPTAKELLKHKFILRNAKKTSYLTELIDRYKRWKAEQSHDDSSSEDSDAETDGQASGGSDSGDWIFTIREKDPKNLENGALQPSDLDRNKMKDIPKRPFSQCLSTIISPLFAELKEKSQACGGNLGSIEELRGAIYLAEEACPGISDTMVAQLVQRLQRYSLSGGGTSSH

With `Cn1c2ccccc2c2c3c(c4c5ccccc5n(CCC#N)c4c21)CNC3=O` the kinase still bound, per cent of control [1] was 46%, the kinase still bound, per cent of control (EPHB1 (human)) was 97% and the kinase still bound, per cent of control (STK24 (human)) was 92%. The kinase still bound, per cent of control (PAK1 (human)) was 84%, the kinase still bound, per cent of control (SIK1 (human)) was 83% and the kinase still bound, per cent of control (LIMK2 (human)) was 100%. For the same molecule, the kinase still bound, per cent of control (PAK3 (human)) was 70%, the kinase still bound, per cent of control (MAP3K6 (human)) was 62% and the kinase still bound, per cent of control (CSF1R (human)) was 37%. For the same molecule, the kinase still bound, per cent of control (CAMK4 (human)) was 100%, the kinase still bound, per cent of control (ACVR1B (human)) was 85% and the kinase still bound, per cent of control (MAPKAPK2 (human)) was 100%. For the same molecule, the kinase still bound, per cent of control (YES1 (human)) was 96%, the kinase still bound, per cent of control [2] was 100% and the kinase still bound, per cent of control (PDGFRB (human)) was 42%. The kinase still bound, per cent of control [3] was 46%, the kinase still bound, per cent of control (MAP3K1 (human)) was 100% and the kinase still bound, per cent of control [4] was 92%. For the same molecule, the kinase still bound, per cent of control [5] was 0.15%, the kinase still bound, per cent of control (MAP4K4 (human)) was 2.2% and the kinase still bound, per cent of control (FLT4 (human)) was 62%. It also gave a kinase still bound, per cent of control (MKNK2 (human)) of 11%, a kinase still bound, per cent of control (SYK (human)) of 2.4% and a kinase still bound, per cent of control (MAPK15 (human)) of 0.45%. For the same molecule, the kinase still bound, per cent of control (EIF2AK2 (human)) was 89%, the kinase still bound, per cent of control (DMPK (human)) was 100% and the kinase still bound, per cent of control (RIPK2 (human)) was 100%. The kinase still bound, per cent of control (NTRK2 (human)) was 1.2%, the kinase still bound, per cent of control (MAPK11 (human)) was 97% and the kinase still bound, per cent of control (TYRO3 (human)) was 78%. For the same molecule, the kinase still bound, per cent of control [6] was 2%, the kinase still bound, per cent of control (TGFBR1 (human)) was 79% and the kinase still bound, per cent of control (MARK2 (human)) was 9.8%. For the same molecule, the kinase still bound, per cent of control (DCLK2 (human)) was 100%, the kinase still bound, per cent of control [7] was 100% and the kinase still bound, per cent of control (BRAF (human)) was 100%. It also gave a kinase still bound, per cent of control (ROS1 (human)) of 1.8%, a kinase still bound, per cent of control (RIPK4 (human)) of 5.2% and a kinase still bound, per cent of control (CSNK2A1 (human)) of 80%. It also gave a kinase still bound, per cent of control (KDR (human)) of 82%, a kinase still bound, per cent of control (GRK7 (human)) of 10% and a kinase still bound, per cent of control (CAMK2B (human)) of 63%.
